Data reported in patent US12667546B2, “Methods for manipulating cell state transitions in cancer” (AGENCY FOR SCIENCE, TECHNOLOGY AND RESEARCH, priority 2018, dated 2026).

Assays:
SUM159 [1] = assay: Cell morphology of treated SUM159; assay type: cell-based, human; settings: bexarotene, TTNPB 1 μM
Procedure: HMLE-Twist-ER cells were generated as described. For EMT-induction, 100 nM of 4-hydroxytamoxifen in ethanol was added to the culture medium every 48 h to induce Twist expression. Control cells were treated with ethanol. MCF7-Slug+Sox9 cells were generated as previously described. HMLE-Zeb1 cells were generated by infection with FUW-Zeb1 and rTTA. Doxycycline was added to the culture medium every 48 h to induce Zeb1 expression. To generate tumorigenic cells from NAMEC8, cells were infected with pWZL-Blast-Ras. MCF7, MCF7-Ras, SUM159 were maintained as previously described. All cell cultures were maintained at 37° C. with 5% CO2.

SUM159 [2] = assay: Expression of EMT and lineage markers in SUM159; assay type: cell-based, human
Procedure: Cells were rinsed twice in ice-cold PBS. Total RNA was extracted using Trizol (Invitrogen) and column-purified with RNeasy kits (Qiagen). cDNA synthesis was performed with 500 ng of total RNA at 37° C. for 2 h using the SuperScript III First-Strand Synthesis System (Thermo Fisher Scientific), and subsequently diluted 5-fold. mRNA levels were measured with gene-specific primers listed below using the ABI Prism 7900HT Sequence Detection System 2.2 (Applied Biosystems). Results were normalized to GAPDH and analyzed using SDS 2.2 software.
Cells were harvested and scraped from culture dishes in ice-cold PBS. They were then centrifuged at 12000 rpm for 5 min at 4° C. The pellets were then snap frozen in liquid nitrogen or lysed in ice-cold RIPA lysis buffer (Thermo Scientific) and left on ice for 30 min. Subsequently, the lysates were centrifuged at 12000 rpm for 10 min at 4° C. The supernatants were then aspirated and placed in fresh tubes. Protein concentrations were determined using Coomaisse Blue. 50-80 μg total protein was mixed with NuPAGE™ LDS sample buffer and heated at 70° C. for 10 min. Samples were loaded into NuPAGE™ 4-12% Bis-Tris gels (precast polyacrylamide gel; Invitrogen™). Gel electrophoresis was done at 200V for 1.5 h and then blotted onto nitrocellulose membranes (Trans-Blot Turbo™ transfer pack; Bio-Rad). […]

NAMEC8 = assay: Dose response to Raloxifene HCl of bexarotene-treated cells; assay type: cell-based, human; settings: bexarotene-treated vs DMSO cells
Source text: Data were normalized to vehicle controls.

SUM159 [3] = assay: Tumor growth of ex vivo pre-treated SUM159 injected subcutaneously; assay type: in vivo, NSG mice; settings: short-term (14 days) ex vivo treatment before transplantation
Procedure: All animal experiments were approved by the Agency for Science Technology and Research Singapore-Biological Resource Centre IACUC (Protocol number 140940). For pre-treated SUM159 and MCF7-Ras cells, 1×10^6 cells were suspended in 100 μl media containing 50% matrigel and injected subcutaneously into both flanks of female NSG mice. The NSG mice were checked for tumor by palpation once a week and tumors were harvested when they reached ˜15 mm in diameter. For treatment in NSG mice, 1×10^5 NAMEC8-Ras cells were suspended in 100 μl media containing 50% matrigel and injected subcutaneously into both flanks of NSG mice. The NSG mice were checked for tumor formation by palpation and when tumors were about 3 mm, mice were randomized into two groups: vehicle (5% DMSO in corn oil) and treatment (Bexarotene, 100 mg/kg/day oral dosing). Tumor size was measured every week using Vernier calipers and mice were sacrificed when tumors reached ˜15 mm or after ˜4 weeks of treatment. For patient-derived cells, 2×10^6 cells were injected subcutaneously per site in NSG mice.

[4] = test system: NAMEC8-Ras, BC2.2 and BC22.1 tumors; assay: Xenograft treatment with oral bexarotene; assay type: in vivo, NSG mice
Source text: Primary human breast cancer samples were obtained from the National Cancer Centre Singapore (NCCS) with patients' consent and under an IRB approved protocol (2015/2976). All animal experiments were approved by the Agency for Science Technology and Research Singapore-Biological Resource Centre IACUC (Protocol number 171286). Patient-derived breast tumor fragments (approximately 3×1×1 mm) were inserted bilaterally into the inguinal mammary fat pads of 6-8 week-old NSG female mice for initial establishment of tumors, and subsequently expanded in NSG mice once established. In this study, established tumor fragments of BC2.2 were implanted into cohorts of 6-8 week-old female NSG mice. For BC22.1, 1×10^6 cells were injected subcutaneously into both flanks of NSG mice.
All animal experiments were approved by the Agency for Science Technology and Research Singapore-Biological Resource Centre IACUC (Protocol number 140940). For pre-treated SUM159 and MCF7-Ras cells, 1×10^6 cells were suspended in 100 μl media containing 50% matrigel and injected subcutaneously into both flanks of female NSG mice. The NSG mice were checked for tumor by palpation once a week and tumors were harvested when they reached ˜15 mm in diameter. For treatment in NSG mice, 1×10^5 NAMEC8-Ras cells were suspended in 100 μl media containing 50% matrigel and injected subcutaneously into both flanks of NSG mice. The NSG mice were checked for tumor formation by palpation and when tumors were about 3 mm, mice were randomized into two groups: vehicle (5% DMSO in corn oil) and treatment (Bexarotene, 100 mg/kg/day oral dosing). Tumor size was measured every week using Vernier calipers and mice were sacrificed when tumors reached ˜15 mm or after ˜4 weeks of treatment. For patient-derived cells, 2×10^6 cells were injected subcutaneously per site in NSG mice. […]
The tumor sections were fixed overnight in 4% paraformaldehyde, immersed in 70% ethanol, and sent to the Advanced Molecular Pathlogy Lab, IMCB for paraffinization. […] The fluorescence image analysis and the fluorescence overlay image were obtained with the Axio Vision Rel. […]

NAMEC8, SUM159 and BC2.2 = assay: Oxygen consumption rate with palmitate (Seahorse); assay type: cell-based, human; settings: supplemented with palmitate
Procedure: FAO rate was measured using the mitochondrial stress test on the XF96 analyzer (Seahorse Bioscience) according to manufacturer's instructions. Cells were seeded in 96well XF96 cell culture plates at a density of 9000 cells/well in complete media. Cells were then incubated with XF modified DMEM assay medium (Seahorse Bioscience) supplemented with 1 mM glutamine, 0.5 mM glucose, 1% FBS and 0.5 mM carnitine the next day for 18 h. On the day of the assay, cells were incubated with FAO assay medium (KHB: 111 mM NaCl, 4.7 mM KCl, 1.25 mM CaCl2), 2 mM MgSO4, 1.2 mM NaH2 PO4 supplemented with 2.5 mM glucose, 0.5 mM carnitine, 5 mM HEPES, adjusted to pH7.4) 45 min prior to the assay in a non-CO2 incubator. Seahorse XF Cell Mito Stress Test compounds (2 μM oligomycin, 2 μM FCCP, 2 μM rotenone). […] Just prior to starting the assay, XF Palmitate-BSA FAO substrate or BSA was added to the cells. Plate was then put into the XF96 analyzer and the XF Cell Mito Stress Test was run using the recommended protocol. Rate of FAO was calculated by the difference in maximal respiration when Palmitate-BSA FAO substrate was supplemented relative to BSA control.

Question: For `C=C(c1ccc(C(=O)O)cc1)c1cc2c(cc1C)C(C)(C)CCC2(C)C` [Bexarotene], which cell morphology (SUM159 [1]) is on record?
Answer: dramatic change in morphology from scattered, spindle and fibroblastic-like cells to an epithelial-like morphology

Question: What about the “expression of EMT and lineage markers / epithelial features” value (SUM159 [2]) of the same molecule?
Answer: downregulation of mesenchymal signature markers (ZEB1, SERPINE1, FN1, SLUG) and the concomitant gain of epithelial marker CDH1

Question: And the “difference in drug sensitivity to Raloxifene hydrochloride” value (NAMEC8)?
Answer: moderate two-fold

Question: What about the tumorigenic potential (SUM159 [3]) of the same molecule?
Answer: severely crippled their tumorigenic potential for up till seven weeks post-transplantation

Question: And the “tumor growth rate and burden” value ([4]; 100 mg/kg/day oral dosing vs vehicle)?
Answer: significant reductions in tumor growth rate and burden

Question: What about the “retinoid target gene expressions in tumors” value ([4]; STRA6, CRAPBP2, DHRS3, ANGPTL4, IP6K3, ACSL5) of the same molecule?
Answer: upregulated by at least two-fold

Question: And the “EMT markers in tumor sections (immunofluorescence)” value ([4]; tumors from bexarotene-treated mice)?
Answer: expression of E-cadherin, and the loss of fibronectin

Question: What about the “oxygen consumption rate (OCR)” value (NAMEC8, SUM159 and BC2.2) of the same molecule?
Answer: lower OCR when supplemented with palmitate
